Data from ChEMBL document CHEMBL1152008, “N,N-disubstituted benzopyran-4-(N-cyano)carboxamidines, cromakalim analogs with selective activity for guinea pig trachealis” (Bioorg Med Chem Lett, 1993).

What was measured:
Type in all cases: functional
Rattus norvegicus [1] = species: Rattus norvegicus; assay: Tested for relaxation of rat aorta smooth muscle precontracted with 30 mM KCI by 50%, activity expresses as negative logarithm of molar concentration
Cavia porcellus [2] = species: Cavia porcellus; assay: Tested for the ability to inhibit spontaneous tone in guinea pig trachealis by 50%, activity expresses as negative logarithm of molar concentration
Cavia porcellus [3] = species: Cavia porcellus; assay: Tested for relaxation of guinea pig trachealis smooth muscle
Rattus norvegicus [4] = species: Rattus norvegicus; assay: Tested for relaxation of rat aorta smooth muscle

SMILES	EC50 (Rattus norvegicus [1]) [nM]	EC50 (Cavia porcellus [2]) [nM]	IA (Cavia porcellus [3]) [%]	IA (Rattus norvegicus [4]) [%]
C/N=C(/NC#N)C1=CC(C)(C)Oc2ccc([N+](=O)[O-])cc21	15.1	23.4	86.5	79.9
CN(C)/C(=N\C#N)C1=CC(C)(C)Oc2ccc([N+](=O)[O-])cc21	> 31600	–	90.6	–
CC(N/C(=N\C#N)Nc1ccncc1)C(C)(C)C (configuration not stated) [PINACIDIL ANHYDROUS]	–	–	97.3	91.9
CC/N=C(/NC#N)C1=CC(C)(C)Oc2ccc([N+](=O)[O-])cc21	89.1	170	85.3	75.1
C/N=C(/NC#N)C1=CC(C)(C)Oc2ccc(C#N)cc21	–	646	86	73
CC1(C)Oc2ccc(C#N)cc2[C@H](N2CCCC2=O)[C@H]1O (single isomer, unassigned) [(-)-CROMAKALIM]	–	–	85.1	74.7
CCN(CC)/C(=N\C#N)C1=CC(C)(C)Oc2ccc([N+](=O)[O-])cc21	> 31600	> 31600	–	–
CCN(C)/C(=N\C#N)C1=CC(C)(C)Oc2ccc([N+](=O)[O-])cc21	> 31600	178	77.9	–
